Test results: patent publication US20090291877A1, “TREATMENTS USING CITRULLINE” (priority 2006, published 2009)

Legend:
[1] = Haemodynamics (MAP, systemic blood pressure, norepinephrine dose) during 72-h intravenous infusion in ICU patients with severe sepsis/septic shock; format: in vivo, human; conditions: for MAP: i.v. L-arginine-HCl 1.2 μmol/kg·min, mean ± SEM
Procedure: (§1) Methods: According to a placebo-controlled double-blind study design, ICU patients with severe sepsis/septic shock (<48 h; APACHE II scores between 18-41) were randomized in a group treated with intravenous 72-h L-arginine-HCl (1.2 μmol/kg·min, n=9) or isocaloric L-alanine (placebo; n=9). All patients were treated with norepinephrine in a range between […] at the start of study. Haemodynamics were recorded at 2-h intervals throughout the protocol. Blood was sampled at baseline and at 24-h intervals and analysed for plasma nitrotyrosine levels. Repeated measurements ANOVA was used; data are means±SEM.

[2] = Plasma nitrotyrosine during 72-h intravenous infusion in ICU patients with severe sepsis/septic shock; format: in vivo, human; conditions: 72-h i.v. infusion, compared with placebo
Procedure: as §1

[3] = hemodialysis patients, pre versus post dialysis run; cited from earlier work

Cl.N=C(N)NCCC[C@H](N)C(=O)O [ARG, L-arginine-HCl]
Norepinephrine dose, arginine versus placebo ([1]; 72-h i.v. infusion, compared with placebo): No significant differences | Systemic blood pressure, arginine versus placebo ([1]; 72-h i.v. infusion, compared with placebo, listed as Arginine): does not affect | Systemic blood pressure, arginine versus placebo ([1]; 72-h i.v. infusion, compared with placebo, listed as arginine): No significant differences | MAP ([1]; 24 h): 81 ± 3 mmHg | MAP ([1]; 48 h): 85 ± 4 mmHg | MAP ([1]; 72 h): 84 ± 5 mmHg | MAP ([1]; Baseline): 82 ± 4 mmHg | Plasma nitrotyrosine (oxidative effect on plasma proteins), arginine versus placebo ([2]; listed as Arginine): does not enhance | Plasma nitrotyrosine (oxidative effect on plasma proteins), arginine versus placebo ([2]; listed as arginine): did not differ | Decrease of level during dialysis treatment [3]: 36%
